{
  "source": "patent US12383545B1",
  "about": "“Treatment of migraine” (priority 2018, dated 2025)",
  "key": {"[1]": {"test_system": "participants with episodic migraine", "assay": "Study A: Activity Impairment in Migraine-Diary (AIM-D) PDA and PI domain scores", "format": "in vivo, human", "details": "for AIM-D Performance of Daily Activities domain score, LSMD vs. placebo (95% CI) / AIM-D Physical Impairment domain score, LSMD vs. placebo (95% CI) / AIM-D Performance of Daily Activities domain score, change from baseline, mean (SD) / AIM-D Physical Impairment domain score, LS mean change (SE): across 12 weeks; for AIM-D Performance of Daily Activities domain score, change from baseline, mean (SD) / AIM-D Physical Impairment domain score, LS mean change (SE) / AIM-D Performance of Daily Activities domain score, Month 1-3, mean (SD): mITT; for AIM-D Performance of Daily Activities domain score, Month 1-3, mean (SD): average across 12-week treatment period", "text": "The Activity in Migraine Diary (AIM-D) evaluates the impact of migraine on the performance of daily activities and physical impairment using an electronic daily diary. In particular, the AIM-D is comprised of two domains that evaluate Performance of Daily Activities (PDA) and Physical Impairment (PI). Assessed items for the AIM-D PDA domain include household chores, errands, leisure activities at home, social or leisure activities outside the home, strenuous physical activities, concentration, and thinking clearly. Assessed items for the AIM-D PI Domain include walking, moving one's body, bending forward, and moving one's head. Response options for each item range from “not difficult at all” to “I could not do it at all” on a 6-point rating scale. The AIM-D domain scores are scaled from 0-100, with higher scores indicating greater impact of migraine, and reductions from baseline in scores indicate improvement. See Cala et al., The Activity Impairment in Migraine-Diary (AIM-D): A Novel Migraine-Specific Patient-Reported Outcome Measure to Assess Functioning Based on Activity Impairment in Episodic and Chronic Migraine Patients, MTIS2018-005 (Sep. 5, 2018).\nA secondary endpoint evaluated the change from baseline in mean monthly performance of daily activities domain score of the AIM-D across the 12-week treatment period. Another secondary endpoint evaluated the change from baseline in mean monthly physical impairment domain score of the AIM-D across the 12-week treatment period. The Activity Impairment in Migraine-Diary (AIM-D) is an 11-item daily diary that is comprised of two domains that evaluate Performance of Daily Activities (PDA; 7 items) and Physical Impairment (PI; 4 items). See Cala et al., “The Activity Impairment in Migraine Diary (AIM-D): A novel migraine-specific patient-reported outcome measure to assess functioning based on activity impairment in episodic and chronic migraine patients”, Cephalalgia 2018; 38:1-115, which is incorporated by reference herein in its entirety. In particular, the AIM-D assesses the impact of migraine on the performance of daily activities and physical impairment using a 6-point rating scale ranging from “Not difficult at all,” “A little difficult,” “Somewhat difficult,” “Very Difficult,” “Extremely Difficult”, and “I could not do it at all.” Items assessed for the AIM-D PDA domain included household chores, errands, leisure activities at home, social or leisure activities outside the home, strenuous physical activities, concentration, and thinking clearly. Items assessed for the AIM-D PI Domain included walking, moving body, bending forward, and moving head. Raw domain scores are recalled to a 0 to 100 scale, where higher scores indicate greater impact of migraine, and reductions from baseline in scores indicate improvement. The AIM-D was collected daily via an electronic diary with the same set of questions administered in headache (HA) and non-headache (NHA) versions. Monthly domain scores are calculated by summing the non-missing daily domain scores (HA and NHA days combined) and dividing the number of non-missing daily scores. The secondary endpoints for AIM-D PDA and PI domain scores were evaluated as change from baseline in mean monthly PDA or PI domain scores of the AIM-D across the 12-week treatment period."}, "[2]": {"test_system": "participants with episodic migraine", "assay": "Study A: Headache Impact Test (HIT-6)", "format": "in vivo, human", "details": "for HIT-6 change from baseline to week 12, MMRM LS mean change (SE) / HIT-6 change from baseline to week 12, mean (SD) / HIT-6 score, Week 12, mean (SD): mITT", "procedure": "In embodiments, the present disclosure provides a method for preventing migraine (such as a method for preventing migraine in patients having fewer than fifteen migraine days per month) wherein atogepant is administered in an amount of 10 mg QD, 30 mg QD, or 60 mg QD, wherein administration of atogepant results in a reduction in a 6-item Headache Impact Test (HIT-6) disability score relative to baseline. The Headache Impact Test (HIT-6) is a well-known tool for assessing migraine intensity, and uses six questions to measure the adverse impact of headache on, for example, social functioning, role functioning, vitality, cognitive functioning, and psychological distress. Responses are based on frequency using a 5-point verbal response scale ranging from “never” to “always”. The HIT-6 total score is the sum of the responses, and ranges from 36 to 78. See Yang et al., Validation of the Headache Impact Test (HIT-6™) Across Episodic and Chronic Migraine, Cephalalgia 2011 February; 31 (3): 357-367. In embodiments, treatment with atogepant results in a greater than five (≥5) point decrease in HIT-6 disability score.\nThe Headache Impact Test (HIT-6, completed monthly) represented an additional exploratory measure. The HIT-6 test is a well-known tool for assessing migraine intensity that uses six questions to capture the impact of headache and its treatment on an individual's functional health and well-being. HIT-6 was completed monthly and was evaluated as the change from baseline in HIT-6 total score at weeks 4, 8, and 12."}},
  "data": [
    {"smiles": "C[C@@H]1[C@H](c2c(F)ccc(F)c2F)C[C@H](NC(=O)c2cnc3c(c2)C[C@@]2(C3)C(=O)Nc3ncccc32)C(=O)N1CC(F)(F)F", "note": "[atogepant]", "values": [
      {"measurement": "AIM-D Performance of Daily Activities domain score, LSMD vs. placebo (95% CI)", "setting": "[1]; 10 mg QD", "value": "−1.19"},
      {"measurement": "AIM-D Physical Impairment domain score, LSMD vs. placebo (95% CI)", "setting": "[1]; 10 mg QD", "value": "−1.08"},
      {"measurement": "AIM-D Performance of Daily Activities domain score, change from baseline, mean (SD)", "setting": "[1]; 10 mg QD", "value": "−7.0"},
      {"measurement": "AIM-D Physical Impairment domain score, LS mean change (SE)", "setting": "[1]; 10 mg QD", "value": "−5.11"},
      {"measurement": "AIM-D Performance of Daily Activities domain score, Month 1-3, mean (SD)", "setting": "[1]; 10 mg QD", "value": 8.6},
      {"measurement": "AIM-D Performance of Daily Activities domain score, LSMD vs. placebo (95% CI)", "setting": "[1]; 30 mg QD", "value": "−2.54"},
      {"measurement": "AIM-D Physical Impairment domain score, LSMD vs. placebo (95% CI)", "setting": "[1]; 30 mg QD", "value": "−1.99"},
      {"measurement": "AIM-D Performance of Daily Activities domain score, change from baseline, mean (SD)", "setting": "[1]; 30 mg QD", "value": "−8.9"},
      {"measurement": "AIM-D Physical Impairment domain score, LS mean change (SE)", "setting": "[1]; 30 mg QD", "value": "−6.02"},
      {"measurement": "AIM-D Performance of Daily Activities domain score, Month 1-3, mean (SD)", "setting": "[1]; 30 mg QD", "value": 8.0},
      {"measurement": "AIM-D Performance of Daily Activities domain score, LSMD vs. placebo (95% CI)", "setting": "[1]; 60 mg QD", "value": "−3.32"},
      {"measurement": "AIM-D Physical Impairment domain score, LSMD vs. placebo (95% CI)", "setting": "[1]; 60 mg QD", "value": "−2.46"},
      {"measurement": "AIM-D Performance of Daily Activities domain score, change from baseline, mean (SD)", "setting": "[1]; 60 mg QD", "value": "−9.2"},
      {"measurement": "AIM-D Physical Impairment domain score, LS mean change (SE)", "setting": "[1]; 60 mg QD", "value": "−6.49"},
      {"measurement": "AIM-D Performance of Daily Activities domain score, Month 1-3, mean (SD)", "setting": "[1]; 60 mg QD", "value": 6.6},
      {"measurement": "HIT-6 change to week 12, LSMD vs placebo (95% CI)", "setting": "[2]; 10 mg QD", "value": "−3.2"},
      {"measurement": "HIT-6 responders (≥5 point reduction), n/N (%)", "setting": "[2]; 10 mg QD, Week 4", "value": "(48.6) %"},
      {"measurement": "HIT-6 responders, odds ratio vs. placebo (95% CI)", "setting": "[2]; 10 mg QD, Week 4", "value": 1.53},
      {"measurement": "HIT-6 responders (≥5 point reduction), n/N (%)", "setting": "[2]; 10 mg QD, Week 8", "value": "(60.4) %"},
      {"measurement": "HIT-6 responders, odds ratio vs. placebo (95% CI)", "setting": "[2]; 10 mg QD, Week 8", "value": 1.79},
      {"measurement": "HIT-6 responders (≥5 point reduction), n/N (%)", "setting": "[2]; 10 mg QD, Week 12", "value": "(64.5) %"},
      {"measurement": "HIT-6 responders, odds ratio vs. placebo (95% CI)", "setting": "[2]; 10 mg QD, Week 12", "value": 1.74},
      {"measurement": "HIT-6 change from baseline to week 12, MMRM LS mean change (SE)", "setting": "[2]; 10 mg QD", "value": "−8.4"},
      {"measurement": "HIT-6 change from baseline to week 12, mean (SD)", "setting": "[2]; 10 mg QD", "value": "−8.3"},
      {"measurement": "HIT-6 score, Week 12, mean (SD)", "setting": "[2]; 10 mg QD", "value": 55.8},
      {"measurement": "HIT-6 change to week 12, LSMD vs placebo (95% CI)", "setting": "[2]; 30 mg QD", "value": "−2.9"},
      {"measurement": "HIT-6 responders (≥5 point reduction), n/N (%)", "setting": "[2]; 30 mg QD, Week 4", "value": "(46.8) %"},
      {"measurement": "HIT-6 responders, odds ratio vs. placebo (95% CI)", "setting": "[2]; 30 mg QD, Week 4", "value": 1.43},
      {"measurement": "HIT-6 responders (≥5 point reduction), n/N (%)", "setting": "[2]; 30 mg QD, Week 8", "value": "(62.2) %"},
      {"measurement": "HIT-6 responders, odds ratio vs. placebo (95% CI)", "setting": "[2]; 30 mg QD, Week 8", "value": 1.95},
      {"measurement": "HIT-6 responders (≥5 point reduction), n/N (%)", "setting": "[2]; 30 mg QD, Week 12", "value": "(62.7) %"},
      {"measurement": "HIT-6 responders, odds ratio vs. placebo (95% CI)", "setting": "[2]; 30 mg QD, Week 12", "value": 1.54},
      {"measurement": "HIT-6 change from baseline to week 12, MMRM LS mean change (SE)", "setting": "[2]; 30 mg QD", "value": "−8.1"},
      {"measurement": "HIT-6 change from baseline to week 12, mean (SD)", "setting": "[2]; 30 mg QD", "value": "−8.1"},
      {"measurement": "HIT-6 score, Week 12, mean (SD)", "setting": "[2]; 30 mg QD", "value": 56.1},
      {"measurement": "HIT-6 change to week 12, LSMD vs placebo (95% CI)", "setting": "[2]; 60 mg QD", "value": "−4.0"},
      {"measurement": "HIT-6 responders (≥5 point reduction), n/N (%)", "setting": "[2]; 60 mg QD, Week 4", "value": "(56.2) %"},
      {"measurement": "HIT-6 responders, odds ratio vs. placebo (95% CI)", "setting": "[2]; 60 mg QD, Week 4", "value": 2.18},
      {"measurement": "HIT-6 responders (≥5 point reduction), n/N (%)", "setting": "[2]; 60 mg QD, Week 8", "value": "(64.7) %"},
      {"measurement": "HIT-6 responders, odds ratio vs. placebo (95% CI)", "setting": "[2]; 60 mg QD, Week 8", "value": 2.25},
      {"measurement": "HIT-6 responders (≥5 point reduction), n/N (%)", "setting": "[2]; 60 mg QD, Week 12", "value": "(65.2) %"},
      {"measurement": "HIT-6 responders, odds ratio vs. placebo (95% CI)", "setting": "[2]; 60 mg QD, Week 12", "value": 1.77},
      {"measurement": "HIT-6 change from baseline to week 12, MMRM LS mean change (SE)", "setting": "[2]; 60 mg QD", "value": "−9.2"},
      {"measurement": "HIT-6 change from baseline to week 12, mean (SD)", "setting": "[2]; 60 mg QD", "value": "−9.9"},
      {"measurement": "HIT-6 score, Week 12, mean (SD)", "setting": "[2]; 60 mg QD", "value": 54.5}
    ]}
  ]
}
